Columns and labels:
[1] = target: T1, Progesterone receptor (Homo sapiens, UniProt P06401); assay type: functional
T1 sequence (P06401 whole entry): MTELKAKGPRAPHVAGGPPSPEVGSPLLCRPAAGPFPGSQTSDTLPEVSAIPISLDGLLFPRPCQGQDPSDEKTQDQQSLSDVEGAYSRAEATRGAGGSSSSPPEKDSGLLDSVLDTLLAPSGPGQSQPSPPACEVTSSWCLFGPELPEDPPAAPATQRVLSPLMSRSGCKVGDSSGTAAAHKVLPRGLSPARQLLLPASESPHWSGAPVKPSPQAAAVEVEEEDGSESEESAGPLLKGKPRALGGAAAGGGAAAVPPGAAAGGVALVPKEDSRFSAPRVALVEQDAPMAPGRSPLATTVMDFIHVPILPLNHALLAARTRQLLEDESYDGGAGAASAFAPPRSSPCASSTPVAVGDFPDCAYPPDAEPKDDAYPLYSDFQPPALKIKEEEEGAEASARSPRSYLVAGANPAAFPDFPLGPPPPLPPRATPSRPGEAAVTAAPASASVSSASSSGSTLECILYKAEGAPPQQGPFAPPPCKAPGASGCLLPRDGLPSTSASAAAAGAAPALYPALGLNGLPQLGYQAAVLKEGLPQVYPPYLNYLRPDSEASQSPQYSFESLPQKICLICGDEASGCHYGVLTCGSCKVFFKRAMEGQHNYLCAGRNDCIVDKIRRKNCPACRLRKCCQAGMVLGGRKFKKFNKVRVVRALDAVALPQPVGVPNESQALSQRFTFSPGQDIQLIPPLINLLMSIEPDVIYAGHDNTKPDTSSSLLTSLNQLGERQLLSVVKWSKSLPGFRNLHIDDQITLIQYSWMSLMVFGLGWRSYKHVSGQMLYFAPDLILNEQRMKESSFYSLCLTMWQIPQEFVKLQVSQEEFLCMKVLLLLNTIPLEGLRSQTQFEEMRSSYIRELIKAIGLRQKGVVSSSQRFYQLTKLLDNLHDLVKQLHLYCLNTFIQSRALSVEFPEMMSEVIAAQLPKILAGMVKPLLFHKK

[2] = target: Voltage-gated inwardly rectifying potassium channel KCNH2 (Homo sapiens, UniProt Q12809); assay type: functional; conditions: read-out: AC50
[3] = target: T2, Equilibrative nucleoside transporter 1 (Homo sapiens, UniProt Q99808)
T2 sequence (Q99808 whole entry): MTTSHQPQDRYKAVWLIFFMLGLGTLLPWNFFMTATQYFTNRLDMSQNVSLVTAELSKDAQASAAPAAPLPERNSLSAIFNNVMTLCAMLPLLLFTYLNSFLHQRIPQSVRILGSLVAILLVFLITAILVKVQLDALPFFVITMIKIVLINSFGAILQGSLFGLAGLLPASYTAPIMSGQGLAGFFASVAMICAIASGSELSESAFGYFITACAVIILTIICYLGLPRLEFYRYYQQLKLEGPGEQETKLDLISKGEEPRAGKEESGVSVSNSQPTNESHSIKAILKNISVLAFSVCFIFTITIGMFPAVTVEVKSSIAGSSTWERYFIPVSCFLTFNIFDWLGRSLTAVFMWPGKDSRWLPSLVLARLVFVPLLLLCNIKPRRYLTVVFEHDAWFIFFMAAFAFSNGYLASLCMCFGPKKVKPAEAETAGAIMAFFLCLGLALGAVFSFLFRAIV

[4] = target: T3, Alpha-2B adrenergic receptor (Homo sapiens, UniProt P18089)
T3 sequence (P18089 whole entry): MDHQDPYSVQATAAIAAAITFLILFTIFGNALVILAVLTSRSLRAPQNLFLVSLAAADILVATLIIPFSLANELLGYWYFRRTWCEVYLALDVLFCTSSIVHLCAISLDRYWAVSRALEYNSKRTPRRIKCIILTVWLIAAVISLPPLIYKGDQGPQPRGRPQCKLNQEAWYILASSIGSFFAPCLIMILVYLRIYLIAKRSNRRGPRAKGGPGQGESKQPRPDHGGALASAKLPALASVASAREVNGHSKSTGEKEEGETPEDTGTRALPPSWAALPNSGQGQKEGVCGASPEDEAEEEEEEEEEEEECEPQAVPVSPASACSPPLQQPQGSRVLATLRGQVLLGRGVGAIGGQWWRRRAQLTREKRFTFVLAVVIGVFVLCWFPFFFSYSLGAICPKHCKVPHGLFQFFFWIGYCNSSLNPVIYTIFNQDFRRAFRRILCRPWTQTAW

[5] = target: T4, Amine oxidase [flavin-containing] A (Homo sapiens, UniProt P21397); assay type: functional
T4 sequence (P21397 whole entry): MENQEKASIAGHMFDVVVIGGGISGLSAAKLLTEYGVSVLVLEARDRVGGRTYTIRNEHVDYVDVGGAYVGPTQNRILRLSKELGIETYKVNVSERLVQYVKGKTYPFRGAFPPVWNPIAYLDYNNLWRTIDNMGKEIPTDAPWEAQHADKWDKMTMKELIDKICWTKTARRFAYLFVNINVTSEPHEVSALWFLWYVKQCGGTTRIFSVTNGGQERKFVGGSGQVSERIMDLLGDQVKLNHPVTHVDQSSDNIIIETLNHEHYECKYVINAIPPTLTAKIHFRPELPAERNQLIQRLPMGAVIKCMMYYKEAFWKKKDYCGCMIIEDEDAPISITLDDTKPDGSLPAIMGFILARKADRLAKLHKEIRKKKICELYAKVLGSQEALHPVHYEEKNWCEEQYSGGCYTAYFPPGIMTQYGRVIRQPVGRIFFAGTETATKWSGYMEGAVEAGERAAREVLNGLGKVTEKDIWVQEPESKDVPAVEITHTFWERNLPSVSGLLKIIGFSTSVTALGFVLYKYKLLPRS
Further: assay procedure not described here.

Chain of Voltage-gated inwardly rectifying potassium channel KCNH2 (Q12809 whole entry): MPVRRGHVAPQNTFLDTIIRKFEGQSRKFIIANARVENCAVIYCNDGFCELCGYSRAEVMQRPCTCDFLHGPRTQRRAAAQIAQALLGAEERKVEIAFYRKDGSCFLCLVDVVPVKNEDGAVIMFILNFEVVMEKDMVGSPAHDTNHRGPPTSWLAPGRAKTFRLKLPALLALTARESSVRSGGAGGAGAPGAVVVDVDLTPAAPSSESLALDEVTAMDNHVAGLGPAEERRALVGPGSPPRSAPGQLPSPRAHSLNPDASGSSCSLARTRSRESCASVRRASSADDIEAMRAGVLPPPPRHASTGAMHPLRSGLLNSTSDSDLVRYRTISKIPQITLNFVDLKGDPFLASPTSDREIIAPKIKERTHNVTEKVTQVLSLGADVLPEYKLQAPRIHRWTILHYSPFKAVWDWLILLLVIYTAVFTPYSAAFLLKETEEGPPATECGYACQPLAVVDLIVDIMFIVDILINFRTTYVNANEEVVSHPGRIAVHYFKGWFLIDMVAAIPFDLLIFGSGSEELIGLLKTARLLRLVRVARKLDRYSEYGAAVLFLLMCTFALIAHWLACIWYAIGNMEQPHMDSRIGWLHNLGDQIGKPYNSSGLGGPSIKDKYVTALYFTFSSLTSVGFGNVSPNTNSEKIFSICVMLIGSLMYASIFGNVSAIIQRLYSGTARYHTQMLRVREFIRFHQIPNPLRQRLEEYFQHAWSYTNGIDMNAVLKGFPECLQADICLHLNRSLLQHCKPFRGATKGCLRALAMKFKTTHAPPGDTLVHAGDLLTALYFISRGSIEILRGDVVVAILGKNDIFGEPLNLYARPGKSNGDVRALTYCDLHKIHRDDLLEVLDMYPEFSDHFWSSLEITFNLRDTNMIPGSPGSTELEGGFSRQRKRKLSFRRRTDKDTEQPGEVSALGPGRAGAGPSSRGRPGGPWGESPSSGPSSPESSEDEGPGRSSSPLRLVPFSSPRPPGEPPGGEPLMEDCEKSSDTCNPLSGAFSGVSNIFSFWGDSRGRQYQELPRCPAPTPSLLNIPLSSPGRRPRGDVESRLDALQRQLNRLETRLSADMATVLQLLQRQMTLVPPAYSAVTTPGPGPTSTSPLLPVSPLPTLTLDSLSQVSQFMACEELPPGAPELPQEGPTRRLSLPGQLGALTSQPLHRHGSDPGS

Structure (SMILES)	AC50 [1] [µM]	AC50 [2] [µM]	AC50 [3] [µM]	AC50 [4] [µM]	AC50 [5] [µM]
N#Cc1ccccc1-c1cc(-c2ccccn2)cn(-c2ccccc2)c1=O	> 30	> 30	> 30	> 30	> 30
N=C(N)NCCCCCCC(=O)NC(O)C(=O)NCCCCNCCCN (centres undefined)	> 30	> 30	> 30	> 30	> 30
C=C[C@@]1(C)CC(=O)[C@]2(O)[C@@]3(C)[C@@H](O)CCC(C)(C)[C@@H]3[C@H](OC(=O)CCN(C)C)[C@H](OC(C)=O)[C@@]2(C)O1	> 30	7.8	> 30	> 30	> 30
CC(=O)OCC(=O)[C@@]1(O)CC[C@H]2[C@@H]3CCC4=CC(=O)CC[C@]4(C)C3=CC[C@@]21C [ANECORTAVE ACETATE]	> 30	> 30	> 10	> 10	> 10
NS(=O)(=O)c1cc2c(cc1C(F)(F)F)NC(Cc1ccccc1)NS2(=O)=O (centres undefined) [BENDROFLUMETHIAZIDE]	> 10	> 30	> 30	> 10	> 10
O=C(CCCN1CCC(n2c(O)nc3ccccc32)CC1)c1ccc(F)cc1 [BENPERIDOL]	> 30	0.11	> 30	0.85	
CCN(CC)C(=O)C1CN2CCc3cc(OC)c(OC)cc3C2CC1OC(C)=O (centres undefined) [BENZQUINAMIDE]	> 30	> 30	> 30	1.03	> 30
CCC(=O)OCC(=O)[C@@]1(OC(=O)CC)[C@@H](C)C[C@H]2[C@@H]3CCC4=CC(=O)C=C[C@]4(C)[C@@]3(F)[C@@H](O)C[C@@]21C [BETAMETHASONE DIPROPIONATE]	0.3	> 30	> 30	> 30	> 30
CCCCC1(CC)C(=O)NC(=O)NC1=O [BUTETHAL]	> 30	> 30	> 30	> 30	> 30
CCOC(=O)NNc1ccc(N(CC)CC(C)O)nn1 (centres undefined) [CADRALAZINE]	> 30	> 30	> 30	> 30	> 30
CO[C@@]1(NC(=O)Cc2cccs2)C(=O)N2C(C(=O)O)=C(COC(N)=O)CS[C@@H]21 [CEFOXITIN]	> 30	> 30	> 30	> 30	> 30
CCN(CC)CCOC(=O)c1ccc(N)cc1Cl [CHLOROPROCAINE]	> 30	11	> 30	> 30	7.9
COCCOC(=O)C1=C(C)NC(C)=C(C(=O)OC/C=C/c2ccccc2)C1c1cccc([N+](=O)[O-])c1 (centres undefined) [CILNIDIPINE]	> 30	> 30	26	> 30	> 30
CCC(C)(Oc1ccc(C2(c3ccc(OC(C)(CC)C(=O)O)cc3)CCCCC2)cc1)C(=O)O (centres undefined) [CLINOFIBRATE]	> 30	> 30	> 30	> 30	> 30
CCCCC[C@H](O)/C=C/[C@H]1[C@H](O)CC(=O)[C@@H]1C/C=C\CCCC(=O)O [DINOPROSTONE]	> 30	> 30	> 30	> 30	> 30
CC(C)c1cc2c(cc1S(=O)(=O)O)[C@@]1(C)CCC[C@@](C)(C(=O)O)[C@@H]1CC2 [ECABET]	> 30	> 30	> 30	> 30	> 30
COC(=O)N[C@@H](C)CNc1nccc(-c2cn(C(C)C)nc2-c2cc(Cl)cc(NS(C)(=O)=O)c2F)n1 [ENCORAFENIB]	> 30	> 30	25.9	> 30	> 30
CCCN(CC)C(CC)C(=O)Nc1c(C)cccc1C (centres undefined) [ETIDOCAINE]	> 30	> 30	> 30	> 30	> 30
Clc1ccc(C(Cn2ccnc2)OCc2ccc(Sc3ccccc3)cc2)c(Cl)c1 (centres undefined) [FENTICONAZOLE]	> 30	1.45	> 30	12	> 30
Nc1nc(F)nc2c1ncn2[C@@H]1O[C@H](COP(=O)(O)O)[C@@H](O)[C@@H]1O [FLUDARABINE PHOSPHATE]	> 30	> 30	> 30	> 30	> 30
O=C(O)c1ccccc1OP(=O)(O)O [FOSFOSAL]	> 30	> 30	> 30	> 30	> 30
CCCCCCOC(=O)CCC(=O)CN [HEXAMINOLEVULINATE]	> 30	> 30	> 30	> 30	> 30
CC1(C)C(/C=C/C=C/C=C/C=C2\N(CCCCS(=O)(=O)O)c3ccc4ccccc4c3C2(C)C)=[N+](CCCCS(=O)(=O)[O-])c2ccc3ccccc3c21 [INDOCYANINE GREEN ACID FORM]	> 30	6.5	11	6.9	> 30
Cc1ccc2c(-c3ccccc3)nc(=O)n(C(C)C)c2c1 [PROQUAZONE]	> 30	> 30		> 30	> 30
Cc1cc2nc3c(=O)[nH]c(=O)nc-3n(C[C@H](O)[C@H](O)[C@H](O)COP(=O)(O)O)c2cc1C [RIBOFLAVIN 5'-PHOSPHATE]	> 30		> 30	> 30	> 30
CN1CCN(c2c(F)cc3c(=O)c(C(=O)O)cn4c3c2SCC4)CC1 [RUFLOXACIN]	> 30	> 30		9.8	> 30
COc1c(O[C@@H]2O[C@H](CO)[C@@H](O)[C@H](O)[C@H]2O)cc2c(c1OC)-c1ccc(SC)c(=O)cc1[C@@H](NC(C)=O)CC2 [THIOCOLCHICOSIDE]	> 30	> 30		> 30	> 30
COc1cc2c(Nc3ccc(Br)cc3F)ncnc2cc1OCC1CCN(C)CC1 [VANDETANIB]	> 30		> 30	0.682	> 30

Source: ChEMBL document CHEMBL5291721, “A preclinical secondary pharmacology resource illuminates target-adverse drug reaction associations of marketed drugs” (Nat Commun, 2023)
